Reference: US8404643B2, “Metastin derivatives and use thereof” (priority 2005, dated 2013)
Square brackets hold non-standard residues; d marks the D form. Peptide text beside a SMILES is read from it. Phe(4-Me) = Cc1ccc(C[C@H](N)C(=O)O)cc1; Arg(Me) = CNC(=N)NCCC[C@H](N)C(=O)O; cisHyp = O=C(O)[C@@H]1C[C@H](O)CN1; Hyp = O=C(O)[C@@H]1C[C@@H](O)CN1; 2Abz = Nc1ccccc1C(=O)O; azaGly = NNC(=O)O

Target: T1, hOT7T175 (Homo sapiens, UniProt Q969F8)
T1 construct: expressed in transfected cells
Test: Assay for intracellular Ca ion level-increasing activity using FLIPR
Type: cell-based
Details: hOT7T175/CHO cells, relative to Metastin (1-54)
In short: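 CHO/dhfr− cells stably transfected with hOT7T175, selected for high metastin response, loaded with Fluo3-AM for 1 h at 37 °C in HANKS/HBSS (pH 7.4) with probenecid. Peptides were diluted from 1×10^−3 M DMSO stock into HANKS/HBSS with 2.5 mM probenecid, 0.2% BSA, 0.1% CHAPS; intracellular Ca rise read by FLIPR.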

T1 sequence (Q969F8 whole entry L364H): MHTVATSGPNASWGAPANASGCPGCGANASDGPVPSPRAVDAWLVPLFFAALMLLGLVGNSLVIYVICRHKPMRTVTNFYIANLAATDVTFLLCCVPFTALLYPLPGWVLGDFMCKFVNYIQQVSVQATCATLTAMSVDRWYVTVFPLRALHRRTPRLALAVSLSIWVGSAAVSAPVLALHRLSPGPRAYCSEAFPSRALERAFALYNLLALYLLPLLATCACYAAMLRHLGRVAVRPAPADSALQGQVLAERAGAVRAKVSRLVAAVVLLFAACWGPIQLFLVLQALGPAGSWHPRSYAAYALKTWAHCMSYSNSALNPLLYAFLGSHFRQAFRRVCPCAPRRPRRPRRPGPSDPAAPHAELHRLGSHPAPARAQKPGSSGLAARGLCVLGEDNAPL

Row | Structure (SMILES) | Specific Activity: intracellular Ca ion level-increasing activity [specific activity to Metastin (1-54)]
1 | CC(=O)N[C@H](Cc1ccc(O)cc1)C(=O)N1C[C@H](O)C[C@H]1C(=O)N[C@@H](CC(N)=O)C(=O)N[C@H](C(=O)N[C@@H](Cc1ccccc1)C(=O)NNC(=O)N[C@@H](CC(C)C)C(=O)N[C@@H](CCCNC(=N)N)C(=O)N[C@@H](Cc1c[nH]c2ccccc12)C(N)=O)[C@@H](C)O [Compound No. 797, Ac-D-Tyr-Hyp-Asn-Thr-Phe-AzaGly-Leu-Arg-Trp-NH2] (Ac-[dY][Hyp]NTF[azaGly]LRW-NH2) | 1.4
2 | CNC(=N)NCCC[C@H](NC(=O)[C@H](CC(C)C)NC(=O)NNC(=O)[C@H](Cc1ccccc1)NC(=O)[C@@H](NC(=O)[C@H](CC(N)=O)NC(=O)[C@@H]1NCCN1C(=O)[C@@H](Cc1ccc(O)cc1)NC(C)=O)[C@@H](C)O)C(=O)N[C@@H](Cc1c[nH]c2ccccc12)C(N)=O [Compound No. 734, Ac-D-Tyr-Izc-Asn-Thr-Phe-AzaGly-Leu-Arg(Me)-Trp-NH2] | 2.3
3 | CNC(=N)NCCC[C@H](NC(=O)[C@H](CC(C)C)NC(=O)NNC(=O)[C@H](Cc1ccc(C)cc1)NC(=O)[C@@H](NC(=O)[C@H](CC(N)=O)NC(=O)[C@@H]1C[C@@H](O)CN1C(=O)[C@@H](Cc1ccc(O)cc1)NC(C)=O)[C@@H](C)O)C(=O)N[C@@H](Cc1c[nH]c2ccccc12)C(N)=O [Compound No. 874, Ac-D-Tyr-Hyp-Asn-Thr-Phe(4Me)-AzaGly-Leu-Arg(Me)-Trp-NH2] (Ac-[dY][Hyp]NT[Phe(4-Me)][azaGly]L[Arg(Me)]W-NH2) | 0.8
4 | CNC(=N)NCCC[C@H](NC(=O)[C@H](CC(C)C)NC(=O)NNC(=O)[C@H](Cc1ccccc1)NC(=O)[C@@H](NC(=O)[C@H](CC(N)=O)NC(=O)[C@@H]1C[C@H](O)CN1C(=O)[C@@H](Cc1ccc(O)cc1)NC(C)=O)[C@@H](C)O)C(=O)N[C@@H](Cc1c[nH]c2ccccc12)C(N)=O [Compound No. 896, Ac-D-Tyr-cisHyp-Asn-Thr-Phe-AzaGly-Leu-Arg(Me)-Trp-NH2] (Ac-[dY][cisHyp]NTF[azaGly]L[Arg(Me)]W-NH2) | 0.6
5 | CNC(=N)NCCC[C@H](NC(=O)[C@H](CC(C)C)NC(=O)NNC(=O)[C@H](Cc1ccccc1)NC(=O)[C@@H](NC(=O)[C@H](CC(N)=O)NC(=O)c1ccccc1NC(=O)[C@@H](Cc1ccc(O)cc1)NC(C)=O)[C@@H](C)O)C(=O)N[C@@H](Cc1c[nH]c2ccccc12)C(N)=O [Compound No. 728, Ac-D-Tyr-Abz(2)-Asn-Thr-Phe-AzaGly-Leu-Arg(Me)-Trp-NH2] (Ac-[dY][2Abz]NTF[azaGly]L[Arg(Me)]W-NH2) | 3.2
